Measured values: patent US10226453B2, “3-(1H-indol-2-yl)-1H-pyrazolo[4,3-B]pyridines and therapeutic uses thereof” (Samumed, LLC, priority 2015, dated 2019)

Assays:
Assay type in all cases: cell-based
[1] = tested on: Wnt activity (Sp5-Luc reporter, SW480 colon carcinoma cells); experiment: Wnt activity screening assay: Sp5-Luc reporter gene in SW480 colon carcinoma cells; conditions: Homo sapiens, overnight incubation, 10-point curve from 10 μM
Source text: The screening assay for Wnt activity is described as follows. Reporter cell lines can be generated by stably transducing cancer cell lines (e.g., colon cancer) or primary cells (e.g., IEC-6 intestinal cells) with a lentiviral construct that includes a Wnt-responsive promoter driving expression of the firefly luciferase gene.
SW480 colon carcinoma cells were transduced with a lentiviral vector expressing luciferase with a human Sp5 promoter consisting of a sequence of eight TCF/LEF binding sites. SW480 cells stably expressing the Sp5-Luc reporter gene and a hygromycin resistance gene were selected by treatment with 150 μg/mL of hygromycin for 7 days. These stably transduced SW480 cells were expanded in cell culture and used for all further screening activities. Each compound was dissolved in DMSO as a 10 mM stock and used to prepare compound source plates. Serial dilution (1:3, 10-point dose-response curves starting from 10 μM) and compound transfer was performed using the ECHO 550 (Labcyte, Sunnyvale, Calif.) into 384-well white solid bottom assay plates (Greiner Bio-One) with appropriate DMSO backfill for a final DMSO concentration of 0.1%. For Sp5-Luc reporter gene assays, the cells were plated at 4,000 cells/well in 384-well plates with medium containing 1% fetal bovine serum and incubated overnight at 37° C. and 5% CO2. Following incubation, 20 μl of BrightGlo luminescence reagent (Promega) was added to each well of the 384-well assay plates. The plates were placed on an orbital shaker for 2 min and then luminescence was quantified using the Envision (Perkin Elmer) plate reader. Readings were normalized to DMSO only treated cells, and normalized activities were utilized for EC50 calculations using the dose-response log (inhibitor) vs. response-variable slope (four parameters) nonlinear regression feature available in GraphPad Prism 5.0 (or Dotmatics). For EC50 of >10 μM, the percent inhibition at 10 μM is provided.

SW480 colon cancer cells = experiment: Cell viability assay (CellTiter-Blue), SW480 colon cancer cells; conditions: Homo sapiens, 96 h, four days, CellTiter-Blue
Procedure: Representative compounds were screened using the following assay procedure to assess the effect on cell viability as described below.
Each compound was dissolved in DMSO as a 10 mM stock and used to prepare compound source plates. Serial dilution (1:3, 8-point dose-response curves from 10 μM to 0.0045 μM) and compound transfer was performed using the ECHO 550 (Labcyte, Sunnyvale, Calif.) into 96-well clear bottom, black-walled plates (Corning—Costar).
Approximately 2×10^3 SW480 colon cancer cells were seeded into each well and allowed to incubate in the presence or absence of compound for four days at 37° C./5% CO2. Eight replicates of DMSO-treated cells served as controls and cells treated with compound were performed in duplicate.
After incubation, 20 μL of CellTiter-Blue (Promega) was added to each well allowed to incubate for approximately 3 hours. This reagent was a buffered solution which contains resazurin, metabolically active cells were able to reduce rezarurin (blue) into resorufin (pink) which was highly fluorescent. This measured fluorescence was used as a readout for cell viability.
After incubation, the plates were read at Ex 560 nm Em 590 nm (Cytation 3, BioTek). Dose-response curves were generated and EC50 concentration values were calculated using non-linear regression curve fit in the GraphPad Prism (San Diego, Calif.) or Dotmatics' Studies Software (Bishops Stortford, UK). For EC50 of >10 μM, the percent inhibition at 10 μM is provided.

[2] = tested on: primary human fibroblasts derived from IPF patients (LL29 cells) treated with TGF-β1; experiment: Inhibition of the fibrotic process: αSMA staining in TGF-β1 treated primary human fibroblasts from IPF patients (LL29 cells); conditions: Fibroblast, 96 h, TGF-β1 20 ng/mL, 4 days, % αSMA positive cells
Source text: Representative compounds were screened using primary human fibroblasts (derived from IPF patients) treated with TGF-β1 to determine their ability to inhibit the fibrotic process.
Primary human fibroblasts derived from IPF patients (LL29 cells) [^1Xiaoqiu Liu, et. al., “Fibrotic Lung Fibroblasts Show Blunted Inhibition by cAMP Due to Deficient cAMP Response Element-Binding Protein Phosphorylation”, Journal of Pharmacology and Experimental Therapeutics (2005), 315(2), 678-687; ^2Watts, K. L., et. al., “RhoA signaling modulates cyclin D1 expression in human lung fibroblasts; implications for idiopathic pulmonary fibrosis”, Respiratory Research (2006), 7(1), 88] were obtained from American Type Culture Collection (ATCC) and expanded in F12 medium supplemented with 15% Fetal Bovine Serum and Penicillin/Streptomycin.
Each compound was dissolved in DMSO as a 10 mM stock and used to prepare compound source plates. Serial dilution (1:2, 11-point dose-response curves from 10 μM to 1.87 nM) and compound transfer was performed using the ECHO 550 (Labcyte, Sunnyvale, Calif.) into 384-well clear bottom assay plates (Greiner Bio-One) with appropriate DMSO backfill for a final DMSO concentration of 0.1%. LL29 cells are plated at 1,500 cells/well in 80 μL/well F12 medium supplemented with 1% Fetal Bovine Serum. One hour after addition of the cells, TGF-β1 (Peprotech; 20 ng/mL) was added to the plates to induce fibrosis (ref. 1 and 2 above). Wells treated with TGF-β1 and containing DMSO were used as controls. Cells were incubated at 37° C. and 5% CO2 for 4 days. Following incubation for 4 days, SYTOX green nucleic acid stain (Life Technologies [Thermo Fisher Scientific]) was added to the wells at a final concentration of 1 μM and incubated at room temperature for 30 min. Cells were then fixed using 4% formaldehyde (Electron Microscopy Sciences), washed 3 times with PBS followed by blocking and permeabilization using 3% Bovine Serum Albumin (BSA; Sigma) and 0.3% Triton X-100 (Sigma) in PBS. Cells were then stained with antibody specific to α-smooth muscle actin (αSMA; Abcam) (ref. 1 and 2 above) in 3% Bovine Serum Albumin (BSA; Sigma) and 0.3% Triton X-100 (Sigma) in PBS, and incubated overnight at 4° C. Cells were then washed 3 times with PBS, followed by incubation with Alexa Flor-647 conjugated secondary antibody (Life Technologies [Thermo Fisher Scientific]) and DAPI at room temperature for 1 hour. Cells were then washed 3 times with PBS and plates were sealed for imaging. αSMA staining was imaged by excitation at 630 nm and emission at 665 nm and quantified using the Compartmental Analysis program on the CellInsight CX5 (Thermo Scientific). Dead or apoptotic cells were excluded from analysis based on positive SYTOX green staining. % of total cells positive for αSMA were counted in each well and normalized to the average of 11 wells treated with TGF-β1 on the same plate using Dotmatics' Studies Software. The normalized averages (fold change over untreated) of 3 replicate wells for each compound concentration were used to create dose-responses curves and EC50 values were calculated using non-linear regression curve fit in the Dotmatics' Studies Software. For EC50 of >10 μM, the percent inhibition at 10 μM is provided.

IL-6 (THP-1 cells) = experiment: IL-6 inhibition in LPS-stimulated THP-1 human monocyte cells (HTRF); conditions: LPS 500 ng/mL, 22 hours, IL6 HTRF
Procedure: Human monocyte cell line (THP-1 cells; Catalog # TIB-202, ATCC, Manassas, Va.) were cultured in Roswell Park Memorial Institute (RPMI) 1640 Medium (Catalog #21870-100, Buffalo, N.Y.) with 1% L-glutamine, 1% HEPES, 1% Sodium Pyruvate, 2% Sodium Bicarbonate supplemented with 100 units/mL penicillin, 50 μg/mL streptomycin, 2-mercaptoethanol (0.05 mM) [basal medium] and 10% fetal bovine serum (Catalog #16140089, Life Technologies, Carlsbad, Calif.) at 37° C. and 5% CO2.
THP-1 cells were cultured in basal media with 1% FBS for 24 hours before the start of the assay. Each compound was dissolved in DMSO as a 10 mM stock and used to prepare compound source plates. Serial dilution (1:3, 10-point dose-response curves starting from 10 μM) and compound transfer was performed using the ECHO 550 (Labcyte, Sunnyvale, Calif.) into 384-well white low volume assay plates (Greiner Bio-One) with appropriate DMSO backfill for a final DMSO concentration of 0.1%. THP-1 cells were plated at 5000 cells/well in the 384-well plates and incubated at 37° C. for 2 h. 500 ng/mL of LPS was added after 2 hours and cells were incubated for another 22 hours at 37° C. Plates were spun in a centrifuge for 1 minute at […] and a mixture of anti-IL6 XL665, and anti-IL6 Cryptate diluted in reconstitution buffer (Cisbio Inc.) was added to each well. Following incubation for 3 hrs at room temperature, Homogeneous Time-Resolved Fluorescence (HTRF) was measured using the Envision (Perkin Elmer) at 665 nm and […]. The ratio of fluorescence at 665 nm to 620 nm was used as a readout for IL6 quantification. All samples were processed in duplicate. Readings were normalized to DMSO treated cells and normalized activities were utilized for EC50 calculations using the dose-response log (inhibitor) vs. response-variable slope (four parameters) nonlinear regression feature available in GraphPad Prism 5.0 (or Dotmatics). For EC50 of >10 μM, the percent inhibition at 10 μM is provided.

Structure (SMILES) | EC50 [1] | EC50 (SW480 colon cancer cells) | EC50 [2] | EC50 (IL-6 (THP-1 cells))
CC(C)Nc1cncc(-c2ccc3[nH]nc(-c4cc5ncccc5[nH]4)c3n2)c1 [Compound 516, 5-(3-(1H-Pyrrolo[3,2-b]pyridin-2-yl)-1H-pyrazolo[4,3-b]pyridin-5-yl)-N-isopropylpyridin-3-amine] | 61 nM | 145 nM | 1970 nM | 37 nM
CCCCC(=O)Nc1cncc(-c2ccc3[nH]nc(-c4cc5ncccc5[nH]4)c3n2)c1 [Compound 523, N-(5-(3-(1H-Pyrrolo[3,2-b]pyridin-2-yl)-1H-pyrazolo[4,3-b]pyridin-5-yl)pyridin-3-yl)pentanamide] | 550 nM | 943 nM | 697 nM | 20 nM
Cn1cc(-c2ccc3[nH]nc(-c4cc5c(-c6cccc(F)c6)cccc5[nH]4)c3n2)cn1 [Compound 536, 3-(4-(3-Fluorophenyl)-1H-indol-2-yl)-5-(1-methyl-1H-pyrazol-4-yl)-1H-pyrazolo[4,3-b]pyridine] | 338 nM | 2780 nM | 230 nM | 23 nM
CN(C)CCOc1cncc(-c2ccc3[nH]nc(-c4cc5c(-c6cccnc6)cccc5[nH]4)c3n2)c1 [Compound 591, N,N-Dimethyl-2-((5-(3-(4-(pyridin-3-yl)-1H-indol-2-yl)-1H-pyrazolo[4,3-b]pyridin-5-yl)pyridin-3-yl)oxy)ethan-1-amine] | 4280 nM | 1090 nM | 1160 nM | 17 nM
Cc1ncc(-c2ccc3[nH]nc(-c4cc5ccccc5[nH]4)c3n2)n1C [Compound 681, 5-(1,2-Dimethyl-1H-imidazol-5-yl)-3-(1H-indol-2-yl)-1H-pyrazolo[4,3-b] pyridine] | 640 nM | 728 nM | 279 nM | 17 nM
CS(=O)(=O)NCc1cc(F)cc(-c2cccc3[nH]c(-c4n[nH]c5ccc(C6CCNCC6)nc45)cc23)c1 [Compound 789, N-(3-Fluoro-5-(2-(5-(piperidin-4-yl)-1H-pyrazolo[4,3-b]pyridin-3-yl)-1H-indol-4-yl)benzyl)methanesulfonamide] | 2950 nM | 5180 nM | 9630 nM | 2250 nM
CS(=O)(=O)NCc1cc(F)cc(-c2cccc3[nH]c(-c4n[nH]c5ccc(-c6cncc(OCc7ccccc7)c6)nc45)cc23)c1 [Compound 802, N-(3-(2-(5-(5-(Benzyloxy)pyridin-3-yl)-1H-pyrazolo[4,3-b]pyridin-3-yl)-1H-indol-4-yl)-5-fluorobenzyl)methanesulfonamide] | 433 nM | 1190 nM | 276 nM | 473 nM
